In US20040082550A1, “Tropolone derivative” (priority 2000, published 2004):

Tested on: promyelocyte leukemia cell strain HL-60
Experiment: Test for induction of cell differentiation in HL-60 cells (NBT reduction ability)
Type: cell-based
Conditions: for Ratio of cells for which differentiation was induced by each compound alone (%): calculated from NBT reduction ability; for Ratio of cells for which differentiation was induced by each compound in combination with 1 × 10^−7 M of HX630 (%): in combination with 1×10^−7 M HX630 (retinoid synergist)
Experimental: For each of the compounds of the examples, action for inducing cell differentiation was examined for each alone and in combination with 1×10^−7 M of HX630. According to the methods described in Japanese Patent Unexamined Publication (KOKAI) No. (Sho)61-76440/1986, differentiation of the cells of promyelocyte leukemia cell strain HL-60 into granulocytic series cells was determined based on morphological change and measurement of ability to reduce nitro blue tetrazolium (NBT). The ratios (%) of differentiated cells shown in the following table are those calculated from NBT reduction ability. HX630 is a retinoid synergist that enhances actions of retinoids, and the concentrations of −8, −7 and −6 mean that each compound was added at concentrations of 1×10^−8 M, 1×10^−7 M and 1×10^−6 M, respectively.

[1] = compound concentration -6 (1×10^−6 M)
[2] = compound concentration -7 (1×10^−7 M)
[3] = compound concentration -8 (1×10^−8 M)

SMILES	Ratio of cells for which differentiation was induced by each compound alone (%) (concentration -6 (1×10^−6 M))	Ratio of cells for which differentiation was induced by each compound alone (%) (concentration -7 (1×10^−7 M))	Ratio of cells for which differentiation was induced by each compound alone (%) (concentration -8 (1×10^−8 M))	Ratio of cells for which differentiation was induced by each compound in combination with 1 × 10^−7 M of HX630 (%) [1] [%]	Ratio of cells for which differentiation was induced by each compound in combination with 1 × 10^−7 M of HX630 (%) [2] [%]	Ratio of cells for which differentiation was induced by each compound in combination with 1 × 10^−7 M of HX630 (%) [3] [%]
CC1(C)CCC(C)(C)c2cc(Nc3ccc(O)c(=O)cc3)ccc21 [Tp10]	3.3	2.9	6.8	5.6	2.9	3
Cc1cc2c(cc1Nc1ccc(O)c(=O)cc1)C(C)(C)CCC2(C)C [Tp20]	2.7	1.8	2.1	2.4	3.7	4.6
Cc1cc2c(cc1N(C)c1ccc(O)c(=O)cc1)C(C)(C)CCC2(C)C [Tp22]	18	2.4	2.8	78	3.3	2.1
CC1(C)CCC(C)(C)c2cc(NC(=O)Nc3ccc(O)c(=O)cc3)ccc21 [Tp30]	1.2	1.5	1.3	20	2.3	2.5
CC1(C)CCC(C)(C)c2cc(S(=O)(=O)Nc3ccc(O)c(=O)cc3)ccc21 [Tp40]	2.3	0.9	1.3	2	2.5	1.8
CC(C)(C)c1cc(C(=O)Nc2ccc(O)c(=O)cc2)cc(C(C)(C)C)c1 [Tp50]	5.1	2.8	1.6			
O=C(Nc1ccc(O)c(=O)cc1)c1cc(C(F)(F)F)cc(C(F)(F)F)c1 [Tp60]	2.1	1.3	0.8	37.8	21.2	2.2
